Data from US20230135152A1 (ACURASTEM INCORPORATED, priority 2020, published 2023).
pEC50: −log10 of the molar value.

How the values were obtained:
[1] = molecular target: T1, PIKFYVE (Homo sapiens, UniProt Q9Y2I7); assay: Cell-based Pikfyve inhibition activity assay (EEA1 staining, mean vesicle size in BJ fibroblast cells); settings: Table 4, 4 hours treatment, 3 μM Apilimod = 100% inhibition
Procedure: BJ fibroblast cells were obtained from American Type Cell Culture (ATCC, CRL-2522). The cells were maintained in DMEM (Genesee Scientific, 25-500) supplemented with 10% fetal bovine serum (Genesee Scientific, 25-514) and 1% penicillin-streptomycin (Genesee Scientific, 25-512) at 37° C. in the atmosphere 5% CO2. BJ fibroblasts were plated into black flat clear bottom 96-well plates (Grenier, 655090) at a density of 3×10^3 per well and were allowed to attach in culture for 8-10 hours before drug treatment. Drugs were tested at eleven doses separated by 3 fold from 0.03 nM to 3000 nM in triplicates for 4 hours at 37° C. After 4 hours, treatment media was aspirated and replaced with 4% Paraformaldehyde (Electron Microscopy Science, 15714-S) and cells were fixed at room temperature for 5 minutes. 4% PFA in wells were then discarded and replaced with a blocking buffer consisting of 1×PBS with 0.1% Tween (Sigma-Aldrich, P1754-500), 5% Donkey Serum (Jackson ImmunoResearch, 017-000-121), and 1% BSA (Caisson Labs, B005-50GM) and incubated at room temperature for 30 minutes. Blocking buffer was then discarded and replaced with a primary EEA1 antibody (Fisher Scientific, BD610457) in a 1:1000 dilution and incubated at 4° C. overnight. Following overnight incubation, plates were washed with 1×PBS three times and incubated with secondary antibody Donkey anti-Mouse IgG, Alexa Fluor 555 (Invitrogen, A31570) (1:1000 dilution) for 1 hour at room temperature in the dark. Subsequently cell plates were washed with 1×PBS three times and can be stored at 4° C. if not being proceeding with imaging procedure.
Images were acquired with 20× objective (ImageXpress MicroConfocal, Molecular Devices) creating z-series of 5 planes (5 steps, […]), 16 tiles per well. Images were then analyzed using a custom CellProfiler protocol to obtain mean vesicle size. The mean vesicle size from 16 images was used as the output for each well. The mean vesicle size from 0.5% DMSO treated condition was considered as having no Pikfyve inhibition activity and the 3 μM Apilimod treated condition was considered as having 100% inhibition activity. The mean vesicle size was converted to % inhibition activity and the data was fitted to a dose-response curve using log(inhibitor) vs normalized response-variable slope using GraphPad Prism.

[2] = molecular target: T1, PIKFYVE; assay: PIKFYVE assay (luciferase ADP-Glo kinase assay, Promega); type: biochemical
Procedure: The activity of Compounds 1-20 was measured using a PIKFYVE assay (luciferase ADP-Glo kinase assay available from Promega Corp. of Madison, Wis.).
The activity of Compounds 39-90 was also measured using a PIKFYVE assay (luciferase ADP-Glo kinase assay available from Promega Corp. of Madison, Wis.).
The activity of Compounds 93-347 was also measured using a PIKFYVE assay (luciferase ADP-Glo kinase assay available from Promega Corp. of Madison, Wis.).

T1 sequence (Q9Y2I7 whole entry): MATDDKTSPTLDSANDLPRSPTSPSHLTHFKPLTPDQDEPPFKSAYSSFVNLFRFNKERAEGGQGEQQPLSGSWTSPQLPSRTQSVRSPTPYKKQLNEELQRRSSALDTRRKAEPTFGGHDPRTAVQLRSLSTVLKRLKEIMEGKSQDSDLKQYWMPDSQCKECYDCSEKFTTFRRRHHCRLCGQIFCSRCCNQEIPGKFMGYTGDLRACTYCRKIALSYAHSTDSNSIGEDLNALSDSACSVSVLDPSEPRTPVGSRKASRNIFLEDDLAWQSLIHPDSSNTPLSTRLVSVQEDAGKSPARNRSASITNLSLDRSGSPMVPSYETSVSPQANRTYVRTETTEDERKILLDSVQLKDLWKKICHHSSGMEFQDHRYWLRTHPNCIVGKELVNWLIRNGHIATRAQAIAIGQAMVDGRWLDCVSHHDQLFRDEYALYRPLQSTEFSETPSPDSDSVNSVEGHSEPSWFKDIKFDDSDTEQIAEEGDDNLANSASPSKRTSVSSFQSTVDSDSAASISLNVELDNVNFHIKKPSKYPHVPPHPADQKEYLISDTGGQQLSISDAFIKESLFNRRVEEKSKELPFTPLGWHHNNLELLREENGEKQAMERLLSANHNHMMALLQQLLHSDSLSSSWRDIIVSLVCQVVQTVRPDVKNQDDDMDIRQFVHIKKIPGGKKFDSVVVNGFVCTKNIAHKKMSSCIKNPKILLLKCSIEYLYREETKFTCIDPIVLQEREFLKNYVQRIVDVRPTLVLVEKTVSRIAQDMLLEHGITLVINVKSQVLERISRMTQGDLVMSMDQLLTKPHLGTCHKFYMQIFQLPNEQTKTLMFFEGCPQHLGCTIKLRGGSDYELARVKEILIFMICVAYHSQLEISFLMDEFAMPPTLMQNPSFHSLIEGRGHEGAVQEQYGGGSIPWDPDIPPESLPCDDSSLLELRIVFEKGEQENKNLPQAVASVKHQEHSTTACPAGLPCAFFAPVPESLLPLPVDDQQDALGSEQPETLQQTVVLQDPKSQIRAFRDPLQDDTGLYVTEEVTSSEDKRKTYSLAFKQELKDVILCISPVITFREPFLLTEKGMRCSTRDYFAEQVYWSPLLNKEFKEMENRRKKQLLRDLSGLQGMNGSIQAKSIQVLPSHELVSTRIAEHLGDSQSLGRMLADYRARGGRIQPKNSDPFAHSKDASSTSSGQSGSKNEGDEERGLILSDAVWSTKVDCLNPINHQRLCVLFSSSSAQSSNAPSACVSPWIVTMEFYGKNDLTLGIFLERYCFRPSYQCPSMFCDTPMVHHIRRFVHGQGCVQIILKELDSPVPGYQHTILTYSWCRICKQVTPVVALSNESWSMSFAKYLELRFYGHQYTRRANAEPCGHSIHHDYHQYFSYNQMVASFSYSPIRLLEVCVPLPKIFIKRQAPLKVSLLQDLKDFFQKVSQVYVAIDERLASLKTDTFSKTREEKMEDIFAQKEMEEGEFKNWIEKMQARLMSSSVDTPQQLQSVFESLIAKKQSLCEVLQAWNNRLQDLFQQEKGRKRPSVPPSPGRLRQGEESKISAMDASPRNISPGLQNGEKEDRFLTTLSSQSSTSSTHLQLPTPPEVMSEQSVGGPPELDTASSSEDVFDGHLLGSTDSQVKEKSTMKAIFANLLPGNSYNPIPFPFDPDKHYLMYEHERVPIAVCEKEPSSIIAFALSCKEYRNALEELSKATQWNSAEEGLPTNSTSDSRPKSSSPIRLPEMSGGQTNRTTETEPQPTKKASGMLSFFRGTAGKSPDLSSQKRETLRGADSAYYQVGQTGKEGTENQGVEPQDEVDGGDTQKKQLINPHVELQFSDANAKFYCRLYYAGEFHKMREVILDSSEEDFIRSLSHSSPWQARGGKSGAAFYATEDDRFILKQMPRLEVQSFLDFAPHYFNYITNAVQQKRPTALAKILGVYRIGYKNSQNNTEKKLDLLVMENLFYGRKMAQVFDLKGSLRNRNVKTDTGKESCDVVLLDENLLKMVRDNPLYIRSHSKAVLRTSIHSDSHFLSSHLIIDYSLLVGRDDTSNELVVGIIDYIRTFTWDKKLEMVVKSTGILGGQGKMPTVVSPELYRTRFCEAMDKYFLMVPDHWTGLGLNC

How did the pEC50 [1] turn out when `Cn1nccc1CC(O)c1nc(N2CCOCC2)cc(-n2ccc(-c3ccccc3)n2)n1` (stereo not drawn) [Compound 201, 2-(1-methyl-1H-pyrazol-5-yl)-1-(4-morpholino-6-(3-phenyl-1H-pyrazol-1-yl)pyrimidin-2-yl)ethan-1-ol] was run?
The pEC50 was 5.30 to 6.30.

What about the IC50 ([2]; Table 3) of the same compound?
Its IC50 is 10 to 100 nM.

Which results are given for `COCc1nc(N2CCOCC2)cc(-n2ccc(-c3ccccc3)n2)n1` [Compound 69]?
pEC50 [1]: 5.30 to 6.30; IC50 ([2]; Table 2): 5 to 100 nM

Which results are given for `Cc1cccc(-c2ccn(-c3cc(N4CCOCC4)nc(/C=C/c4cnn(C)c4)n3)n2)c1` [Compound 304, (E)-4-(2-(2-(1-methyl-1H-pyrazol-4-yl)vinyl)-6-(3-(m-tolyl)-1H-pyrazol-1-yl)pyrimidin-4-yl)morpholine]?
pEC50 [1]: 7.00 to 7.70; IC50 ([2]; Table 3): 3 to 10 nM

Which results are given for `COc1cc(N2CCOCC2)nc(-n2ccc(-c3cccc(C)c3)n2)n1` [Compound 87, 4-(6-methoxy-2-(3-(m-tolyl)-1H-pyrazol-1-yl)pyrimidin-4-yl)morpholine]?
pEC50 [1]: 6.30 to 7.00; IC50 ([2]; Table 2): 101 to 1000 nM

`CO[C@@H](CO)c1nc(N2CCOCC2)cc(-n2ccc(-c3cccc4ncsc34)n2)n1` [Compound 275, (R)-2-(4-(3-(benzo[d]thiazol-7-yl)-1H-pyrazol-1-yl)-6-morpholinopyrimidin-2-yl)-2-methoxyethan-1-ol] was tested. Which pEC50 [1] did it give?
Its pEC50 is < 5.30.

What about the IC50 ([2]; Table 3) of the same compound?
Its IC50 is 100 to 5000 nM.

What does the source list for `CCO[C@@H](CO)c1nc(N2CCOCC2)cc(-n2ccc(-c3cccc(C)c3)n2)n1` (single isomer, unassigned) [Compound 312]?
pEC50 [1]: 6.30 to 7.00; IC50 ([2]; Table 3): 3 to 10 nM

How did the pEC50 [1] turn out when `C[C@H](O)c1cccc(-c2ccn(-c3cc(N4CCOCC4)nc(OCCc4cnn(C)c4)n3)n2)c1` (single isomer, unassigned) [Compound 316] was run?
The pEC50 was 7.00 to 7.70.

And the IC50 ([2]; Table 3)?
The IC50 was 3 to 10 nM.

Which results are given for `Cc1ccc(C)c(-c2ccn(-c3cc(N4CCOCC4)nc(OCCc4cnn(C)c4)n3)n2)c1` [Compound 197, 4-(6-(3-(2,5-dimethylphenyl)-1H-pyrazol-1-yl)-2-(2-(1-methyl-1H-pyrazol-4-yl)ethoxy)pyrimidin-4-yl)morpholine]?
pEC50 [1]: 6.30 to 7.00; IC50 ([2]; Table 3): 3 to 10 nM

What does the source list for `Cn1cc(C(O)CCc2nc(N3CCOCC3)cc(-n3ccc(-c4ccccc4)n3)n2)cn1` (stereo not drawn) [Compound 79, 1-(1-methyl-1H-pyrazol-4-yl)-3-(4-morpholino-6-(3-phenyl-1H-pyrazol-1-yl)pyrimidin-2-yl)propan-1-ol]?
pEC50 [1]: 6.30 to 7.00; IC50 ([2]; Table 2): < 5 nM

How did the pEC50 [1] turn out when `CC[C@H](OC)c1nc(N2CCOCC2)cc(-n2ccc(-c3cccc(C)c3)n2)n1` (single isomer, unassigned) [Compound 323] was run?
The pEC50 was 5.30 to 6.30.

What about the IC50 ([2]; Table 3) of the same compound?
The IC50 was 10 to 100 nM.

How did the pEC50 [1] turn out when `Cc1cccc(-c2ccn(-c3cc(N4CCOCC4)nc(COCc4cnn(C)c4)n3)n2)c1` [Compound 299, 4-(2-(((1-methyl-1H-pyrazol-4-yl)methoxy)methyl)-6-(3-(m-tolyl)-1H-pyrazol-1-yl)pyrimidin-4-yl)morpholine] was run?
The pEC50 was 7.00 to 7.70.

What about the IC50 ([2]; Table 3) of the same compound?
Its IC50 is < 3 nM.

With `CC[C@@H](OC)c1nc(N2CCOCC2)cc(-n2ccc(-c3cccc(C)c3)n2)n1` (single isomer, unassigned) [Compound 322] as the compound, how does the pEC50 [1] read?
Its pEC50 is 5.30 to 6.30.

And the IC50 ([2]; Table 3)?
Its IC50 is 3 to 10 nM.

How did the pEC50 [1] turn out when `Cc1cccc(-c2ccn(-c3cc(N4CCOCC4)nc(NC(=O)CC4CC4)n3)n2)c1` [Compound 188, 2-cyclopropyl-N-(4-morpholino-6-(3-(m-tolyl)-1H-pyrazol-1-yl)pyrimidin-2-yl)acetamide] was run?
Its pEC50 is 6.30 to 7.00.

What about the IC50 ([2]; Table 3) of the same compound?
The IC50 was < 3 nM.

How did the pEC50 [1] turn out when `Cn1cc(CCOc2nc(N3CCOCC3)cc(-n3ccc(-c4ccccc4)n3)n2)cn1` [Compound 189, 4-(2-(2-(1-methyl-1H-pyrazol-4-yl)ethoxy)-6-(3-phenyl-1H-pyrazol-1-yl)pyrimidin-4-yl)morpholine] was run?
Its pEC50 is 7.00 to 7.70.

And the IC50 ([2]; Table 3)?
Its IC50 is < 3 nM.

`Cc1cccc(-c2ccn(-c3cc(N4CCOCC4)nc(OCCc4cnccn4)n3)n2)c1` [Compound 94, 4-(2-(2-(pyrazin-2-yl)ethoxy)-6-(3-(m-tolyl)-1H-pyrazol-1-yl)pyrimidin-4-yl)morpholine] was tested. Which pEC50 [1] did it give?
The pEC50 was > 7.70.

And the IC50 ([2]; Table 3)?
Its IC50 is < 3 nM.

With `COc1nc(N2CCOCC2)cc(-n2ccc(-c3cccc(C)c3)n2)n1` [Compound 59, 4-(2-methoxy-6-(3-(m-tolyl)-1H-pyrazol-1-yl)pyrimidin-4-yl)morpholine] as the compound, how does the pEC50 [1] read?
The pEC50 was 7.00 to 7.70.

What about the IC50 ([2]; Table 2) of the same compound?
The IC50 was 5 to 100 nM.

`Cc1cccc(-c2ccn(-c3cc(N4CCOCC4)nc([C@@H]4CCCO4)n3)n2)c1` (single isomer, unassigned) [Compound 328] was tested. Which pEC50 [1] did it give?
The pEC50 was < 5.30.

What about the IC50 ([2]; Table 3) of the same compound?
The IC50 was 3 to 10 nM.

Which results are given for `COC(CC#N)c1nc(N2CCOCC2)cc(-n2ccc(-c3ccccc3)n2)n1` (stereo not drawn) [Compound 182, 3-methoxy-3-(4-morpholino-6-(3-phenyl-1H-pyrazol-1-yl)pyrimidin-2-yl)propanenitrile]?
pEC50 [1]: 5.30 to 6.30; IC50 ([2]; Table 3): 10 to 100 nM

With `CC(=O)Nc1nc(N2CCOCC2)cc(-n2ccc(-c3cccc(C)c3)n2)n1` [Compound 66, N-(4-morpholino-6-(3-(m-tolyl)-1H-pyrazol-1-yl)pyrimidin-2-yl)acetamide] as the compound, how does the pEC50 [1] read?
The pEC50 was 6.30 to 7.00.

And the IC50 ([2]; Table 2)?
The IC50 was < 5 nM.

How did the pEC50 [1] turn out when `COCc1cc(-c2ccccc2)nn1-c1cc(N2CCOCC2)nc(OCCc2cnn(C)c2)n1` [Compound 217, 4-(6-(5-(methoxymethyl)-3-phenyl-1H-pyrazol-1-yl)-2-(2-(1-methyl-1H-pyrazol-4-yl)ethoxy)pyrimidin-4-yl)morpholine] was run?
Its pEC50 is 7.00 to 7.70.

What about the IC50 ([2]; Table 3) of the same compound?
The IC50 was < 3 nM.

What does the source list for `Cc1cccc(-c2ccn(-c3cc(N4CCOCC4)nc(OCCn4cnc(CO)c4)n3)n2)c1` [Compound 116, (1-(2-((4-morpholino-6-(3-(m-tolyl)-1H-pyrazol-1-yl)pyrimidin-2-yl)oxy)ethyl)-1H-imidazol-4-yl)methanol]?
pEC50 [1]: 6.30 to 7.00; IC50 ([2]; Table 3): < 3 nM

`Cc1cc(-c2c[nH]c3ccccc23)nn1-c1cc(N2CCOCC2)nc(C2COCCO2)n1` (single isomer, unassigned) [Compound 344] was tested. Which pEC50 [1] did it give?
The pEC50 was > 7.70.

And the IC50 ([2]; Table 3)?
The IC50 was < 3 nM.

With `Cc1cccc(-c2ccn(-c3cc(N4CCOCC4)nc(OCCc4cn(C)cn4)n3)n2)c1` [Compound 118, 4-(2-(2-(1-methyl-1H-imidazol-4-yl)ethoxy)-6-(3-(m-tolyl)-1H-pyrazol-1-yl)pyrimidin-4-yl)morpholine] as the compound, how does the pEC50 [1] read?
The pEC50 was 7.00 to 7.70.

What about the IC50 ([2]; Table 3) of the same compound?
Its IC50 is < 3 nM.

`Cc1cccc(-c2ccn(-c3cc(N4CCOCC4)nc(OC(CN(C)C)c4ccccc4)n3)n2)c1` (stereo not drawn) [Compound 113, N,N-dimethyl-2-((4-morpholino-6-(3-(m-tolyl)-1H-pyrazol-1-yl)pyrimidin-2-yl)oxy)-2-phenylethan-1-amine] was tested. Which pEC50 [1] did it give?
The pEC50 was 6.30 to 7.00.

What about the IC50 ([2]; Table 3) of the same compound?
Its IC50 is < 3 nM.

`Cc1cccc(-c2ccn(-c3cc(N4CCOCC4)nc(OCCN(C)c4ccccc4)n3)n2)c1` [Compound 100, N-methyl-N-(2-((4-morpholino-6-(3-(m-tolyl)-1H-pyrazol-1-yl)pyrimidin-2-yl)oxy)ethyl)aniline] was tested. Which pEC50 [1] did it give?
Its pEC50 is 6.30 to 7.00.

What about the IC50 ([2]; Table 3) of the same compound?
Its IC50 is 3 to 10 nM.

Which results are given for `COCC(O)c1nc(N2CCOCC2)cc(-n2ccc(-c3cccc(C)c3)n2)n1` (stereo not drawn) [Compound 155, 2-methoxy-1-(4-morpholino-6-(3-(m-tolyl)-1H-pyrazol-1-yl)pyrimidin-2-yl)ethan-1-ol]?
pEC50 [1]: 6.30 to 7.00; IC50 ([2]; Table 3): 3 to 10 nM

`c1ccc(-c2ccn(-c3cc(N4CCOCC4)nc(OCc4cccnn4)n3)n2)cc1` [Compound 114, 4-(6-(3-phenyl-1H-pyrazol-1-yl)-2-(pyridazin-3-ylmethoxy)pyrimidin-4-yl)morpholine] was tested. Which pEC50 [1] did it give?
Its pEC50 is 6.30 to 7.00.

And the IC50 ([2]; Table 3)?
Its IC50 is 3 to 10 nM.
